How the values were obtained:
Assay in all cases: In vitro antibacterial evaluation: minimum inhibitory concentration (MIC), broth dilution method
Assay type in all cases: cell-based
Conditions in all cases: 18 hours at 35° C.
[1] = system: Streptococcus sp.
Summary of the method: (§1)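 NCCLS M7-A2 broth dilution with Mueller-Hinton II, testing 64-0.06 μg/mL antibiotic against 5×10^5 CFU/mL inocula. Test strains include recent methicillin-, penicillin- or vancomycin-resistant clinical isolates. MIC is the lowest concentration preventing growth.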

[2] = system: Staphylococcus sp.
Summary of the method: as §1

[3] = system: Escherichia coli
Summary of the method: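 MIC read as lowest drug level preventing visible growth. Organisms at 5×10^5 CFU/mL were exposed to a 64-0.06 μg/mL dilution series in Muller-Hinton II […] following NCCLS broth dilution standard M7-A2.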

[4] = system: Enterococcus sp.
Summary of the method: as §1

## γ-O-[(Heptylamino)carbonyl]-cyclo[glycyl-β-methylphenylalanyl-O-(4-O-hexopyranosylhexopyranosyl)tyrosyl-3-(2-iminoimidazolidin-4-yl)seryl-3-(3-hexopyranosyl-2-iminoimidazolidin-4-yl)serylseryl] [Example 253b]
[1]; Streptococcus agalactiae (GC 4564)
  MIC Streptococcus agalactiae (GC 4564): 1 µg/mL
[1]; Streptococcus pneumoniae (ATCC 6301)
  MIC Streptococcus pneumoniae (ATCC 6301): 0.25 µg/mL
[1]; Streptococcus pneumoniae (GC 1894)
  MIC Streptococcus pneumoniae (GC 1894): <0.06 µg/mL
[1]; Streptococcus pneumoniae (GC 4565)
  MIC Streptococcus pneumoniae (GC 4565): 0.25 µg/mL
[1]; Streptococcus pyogenes (GC 4563)
  MIC Streptococcus pyogenes (GC 4563): 1 µg/mL
[1]; broth dilution, strain ATCC 6301
  MIC Streptococcus pneumoniae (ATCC 6301): 0.25 µg/mL
[1]; broth dilution, strain GC 1894
  MIC Streptococcus pneumoniae (GC 1894): <0.06 µg/mL
[1]; broth dilution, strain GC 4563
  MIC Streptococcus pyogenes (GC 4563): 1 µg/mL
[1]; broth dilution, strain GC 4564
  MIC Streptococcus agalactiae (GC 4564): 1 µg/mL
[1]; broth dilution, strain GC 4565
  MIC Streptococcus pneumoniae (GC 4565): 0.25 µg/mL
[2]; Coagulase Negative Staphylococcus (GC 4547)
  MIC Coagulase Negative Staphylococcus (GC 4547): 4 µg/mL
[2]; Coagulase Negative Staphylococcus (GC 4548)
  MIC Coagulase Negative Staphylococcus (GC 4548): 2 µg/mL
[2]; Coagulase Negative Staphylococcus (GC 4549)
  MIC Coagulase Negative Staphylococcus (GC 4549): 2 µg/mL
[2]; Coagulase Negative Staphylococcus (GC 4551)
  MIC Coagulase Negative Staphylococcus (GC 4551): 4 µg/mL
[2]; Coagulase Negative Staphylococcus (GC 6257)
  MIC Coagulase Negative Staphylococcus (GC 6257): 2 µg/mL
[2]; Staphylococcus aureus (ATCC 29213)
  MIC Staphylococcus aureus (ATCC 29213): 4 µg/mL
[2]; Staphylococcus aureus (GC 1131)
  MIC Staphylococcus aureus (GC 1131): 4 µg/mL
[2]; Staphylococcus aureus (GC 3051)
  MIC Staphylococcus aureus (GC 3051): 2 µg/mL
[2]; Staphylococcus aureus (GC 3053)
  MIC Staphylococcus aureus (GC 3053): 8 µg/mL
[2]; Staphylococcus aureus (GC 4541)
  MIC Staphylococcus aureus (GC 4541): 2 µg/mL
[2]; Staphylococcus aureus (GC 4542)
  MIC Staphylococcus aureus (GC 4542): 4 µg/mL
[2]; Staphylococcus aureus (GC 4544)
  MIC Staphylococcus aureus (GC 4544): 4 µg/mL
[2]; Staphylococcus aureus (GC 4545)
  MIC Staphylococcus aureus (GC 4545): 2 µg/mL
[2]; Staphylococcus aureus-SMITH (GC 4543)
  MIC Staphylococcus aureus-SMITH (GC 4543): 2 µg/mL
[2]; Staphylococcus haemolyticus (GC 4546)
  MIC Staphylococcus haemolyticus (GC 4546): 2 µg/mL
[2]; broth dilution, strain ATCC 29213
  MIC Staphylococcus aureus (ATCC 29213): 4 µg/mL
[2]; broth dilution, strain GC 1131
  MIC Staphylococcus aureus (GC 1131): 4 µg/mL
[2]; broth dilution, strain GC 3051
  MIC Staphylococcus aureus (GC 3051): 2 µg/mL
[2]; broth dilution, strain GC 3053
  MIC Staphylococcus aureus (GC 3053): 8 µg/mL
[2]; broth dilution, strain GC 4541
  MIC Staphylococcus aureus (GC 4541): 2 µg/mL
[2]; broth dilution, strain GC 4542
  MIC Staphylococcus aureus (GC 4542): 4 µg/mL
[2]; broth dilution, strain GC 4543
  MIC Staphylococcus aureus-SMITH (GC 4543): 2 µg/mL
[2]; broth dilution, strain GC 4544
  MIC Staphylococcus aureus (GC 4544): 4 µg/mL
[2]; broth dilution, strain GC 4545
  MIC Staphylococcus aureus (GC 4545): 2 µg/mL
[2]; broth dilution, strain GC 4546
  MIC Staphylococcus haemolyticus (GC 4546): 2 µg/mL
[2]; broth dilution, strain GC 4547
  MIC Coagulase Negative Staphylococcus (GC 4547): 4 µg/mL
[2]; broth dilution, strain GC 4548
  MIC Coagulase Negative Staphylococcus (GC 4548): 2 µg/mL
[2]; broth dilution, strain GC 4549
  MIC Coagulase Negative Staphylococcus (GC 4549): 2 µg/mL
[2]; broth dilution, strain GC 4551
  MIC Coagulase Negative Staphylococcus (GC 4551): 4 µg/mL
[2]; broth dilution, strain GC 6257
  MIC Coagulase Negative Staphylococcus (GC 6257): 2 µg/mL
[3]; Escherichia coli (ATCC 25922)
  MIC Escherichia coli (ATCC 25922): 64 µg/mL
[3]; Escherichia coli (GC 4559)
  MIC Escherichia coli (GC 4559): 64 µg/mL
[3]; Escherichia coli (GC 4560)
  MIC Escherichia coli (GC 4560): 2 µg/mL
[4]; Enterococcus avium (GC 4558)
  MIC Enterococcus avium (GC 4558): 8 µg/mL
[4]; Enterococcus faecalis (ATCC 29212)
  MIC Enterococcus faecalis (ATCC 29212): 8 µg/mL
[4]; Enterococcus faecalis (GC 2242)
  MIC Enterococcus faecalis (GC 2242): 8 µg/mL
[4]; Enterococcus faecalis (GC 2691)
  MIC Enterococcus faecalis (GC 2691): 8 µg/mL
[4]; Enterococcus faecalis (GC 3059)
  MIC Enterococcus faecalis (GC 3059): 16 µg/mL
[4]; Enterococcus faecalis (GC 4552)
  MIC Enterococcus faecalis (GC 4552): 8 µg/mL
[4]; Enterococcus faecalis (GC 4553)
  MIC Enterococcus faecalis (GC 4553): 8 µg/mL
[4]; Enterococcus faecalis (GC 4554)
  MIC Enterococcus faecalis (GC 4554): 8 µg/mL
[4]; Enterococcus faecalis (GC 6189)
  MIC Enterococcus faecalis (GC 6189): 8 µg/mL
[4]; Enterococcus faecium (GC 2243)
  MIC Enterococcus faecium (GC 2243): 8 µg/mL
[4]; Enterococcus faecium (GC 4556)
  MIC Enterococcus faecium (GC 4556): 8 µg/mL
[4]; Enterococcus faecium (GC 4557)
  MIC Enterococcus faecium (GC 4557): 4 µg/mL
[4]; broth dilution, strain ATCC 29212
  MIC Enterococcus faecalis (ATCC 29212): 8 µg/mL
[4]; broth dilution, strain GC 2242
  MIC Enterococcus faecalis (GC 2242): 8 µg/mL
[4]; broth dilution, strain GC 2243
  MIC Enterococcus faecium (GC 2243): 8 µg/mL
[4]; broth dilution, strain GC 2691
  MIC Enterococcus faecalis (GC 2691): 8 µg/mL
[4]; broth dilution, strain GC 3059
  MIC Enterococcus faecalis (GC 3059): 16 µg/mL
[4]; broth dilution, strain GC 4552
  MIC Enterococcus faecalis (GC 4552): 8 µg/mL
[4]; broth dilution, strain GC 4553
  MIC Enterococcus faecalis (GC 4553): 8 µg/mL
[4]; broth dilution, strain GC 4554
  MIC Enterococcus faecalis (GC 4554): 8 µg/mL
[4]; broth dilution, strain GC 4556
  MIC Enterococcus faecium (GC 4556): 8 µg/mL
[4]; broth dilution, strain GC 4557
  MIC Enterococcus faecium (GC 4557): 4 µg/mL
[4]; broth dilution, strain GC 4558
  MIC Enterococcus avium (GC 4558): 8 µg/mL
[4]; broth dilution, strain GC 6189
  MIC Enterococcus faecalis (GC 6189): 8 µg/mL

From patent publication US8247211B2, “Glycopeptide antibiotics” (American Cyanamid Company, priority 2001, dated 2012)
